Like-named read-outs stand apart in the source and are kept apart here.
Assays:
Cathepsin L = molecular target: T1, Cathepsin L (Homo sapiens, UniProt P07711); format: biochemical
T1 construct: purchased

DPP4 = molecular target: T2, DPP4 (Homo sapiens, UniProt P27487); format: biochemical
T2 construct: purchased
T2 sequence (P27487 whole entry): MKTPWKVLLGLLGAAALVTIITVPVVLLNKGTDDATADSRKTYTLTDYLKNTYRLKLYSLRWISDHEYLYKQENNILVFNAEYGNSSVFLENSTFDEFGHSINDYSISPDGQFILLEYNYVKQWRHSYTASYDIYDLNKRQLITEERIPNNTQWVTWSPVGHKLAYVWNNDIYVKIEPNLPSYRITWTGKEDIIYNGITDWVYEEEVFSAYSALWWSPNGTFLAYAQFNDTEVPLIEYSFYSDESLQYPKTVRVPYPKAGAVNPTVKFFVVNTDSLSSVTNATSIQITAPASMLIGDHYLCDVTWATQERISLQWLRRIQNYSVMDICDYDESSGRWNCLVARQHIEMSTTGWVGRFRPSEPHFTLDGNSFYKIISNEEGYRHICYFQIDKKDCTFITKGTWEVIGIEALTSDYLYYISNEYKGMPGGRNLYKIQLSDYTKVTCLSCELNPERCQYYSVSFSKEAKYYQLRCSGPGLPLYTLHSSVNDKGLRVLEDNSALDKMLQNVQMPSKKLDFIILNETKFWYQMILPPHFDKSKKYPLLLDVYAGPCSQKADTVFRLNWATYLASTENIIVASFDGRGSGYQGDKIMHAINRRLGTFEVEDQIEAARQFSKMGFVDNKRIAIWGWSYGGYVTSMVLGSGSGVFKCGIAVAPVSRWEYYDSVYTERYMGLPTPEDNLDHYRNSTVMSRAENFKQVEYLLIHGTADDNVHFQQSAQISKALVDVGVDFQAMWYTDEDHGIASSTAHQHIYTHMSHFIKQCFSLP

T1 sequence (P07711 114-333): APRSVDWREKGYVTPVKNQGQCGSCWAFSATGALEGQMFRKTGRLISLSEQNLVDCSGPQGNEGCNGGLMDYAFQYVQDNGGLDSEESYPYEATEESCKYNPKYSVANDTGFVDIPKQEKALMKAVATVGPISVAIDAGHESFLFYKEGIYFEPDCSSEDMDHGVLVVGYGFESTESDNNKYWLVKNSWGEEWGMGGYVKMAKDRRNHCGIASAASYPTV

Compound	% Inhibition wrt Enzyme Control (Cathepsin L; 0.0001 μM) [%]	% Inhibition wrt Enzyme Control (Cathepsin L; 0.01 μM) [%]	% Inhibition wrt Enzyme Control (Cathepsin L; 0.1 µM) [%]	% Inhibition wrt Enzyme Control (DPP4; 0.001 μM) [%]	% Inhibition wrt Enzyme Control (DPP4; 0.01 μM) [%]	% Inhibition wrt Enzyme Control (DPP4; 0.1 µM) [%]	% Inhibition wrt Enzyme Control (DPP4; 1 µM) [%]
CC(C)C[C@H](NC(=O)[C@H]1O[C@@H]1C(=O)O)C(=O)NCCCCN=C(N)N [E-64]	7.4	24.2	61.0	–	–	–	–
CC(C)C[C@H](NC(=O)OCc1ccccc1)C(=O)N[C@@H](C[C@@H]1CCNC1=O)C(O)S(=O)(=O)[O-].[Na+] (stereo partly shown) [GC376]	–	–	–	32.4	76.2	87.1	99.5

— US20250041380A1, “R[…] FOR SARS-COV2 DISEASE” (priority 2021, published 2025)
